Literature values, collected in patent publication US7300923B2, “Partial and full agonists of A1 adenosine receptors” (CV Therapeutics, Inc., priority 2004, dated 2007).

Legend:
A1-adenosine receptor = target: T1, A1-adenosine receptor (Homo sapiens, UniProt P30542)
T1 sequence (P30542 1-326): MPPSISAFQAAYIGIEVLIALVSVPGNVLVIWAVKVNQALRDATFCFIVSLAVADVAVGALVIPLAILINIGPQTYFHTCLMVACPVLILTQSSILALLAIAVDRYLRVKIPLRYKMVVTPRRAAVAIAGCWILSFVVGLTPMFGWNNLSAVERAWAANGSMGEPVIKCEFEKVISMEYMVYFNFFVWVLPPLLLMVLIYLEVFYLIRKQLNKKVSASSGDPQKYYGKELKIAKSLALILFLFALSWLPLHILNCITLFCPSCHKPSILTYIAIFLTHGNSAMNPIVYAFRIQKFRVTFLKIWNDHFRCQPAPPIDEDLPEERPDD

seizures induced by DMCM = details: seizures induced by the inverse benzodiazepine agonist DMCM

OC1CCCC1Nc1ncnc2c1ncn2[C@@H]1O[C@H](CSc2ccccc2F)[C@@H](O)[C@H]1O (mixture of isomers) [(4S,5S,2R,3R)-5-[(2-fluorophenylthio)methyl]-2-{6-[(2-hydroxy-cyclopentyl)amino]-purin-9-yl}oxolane-3,4-diol]
A1-adenosine receptor agonist profile (A1-adenosine receptor): highly selective partial A1-adenosine receptor agonist

Nc1ncnc2c1ncn2[C@@H]1O[C@H](CO)[C@@H](O)[C@H]1O [adenosine, Adenosine]
half-life: less than 10 sec

Cc1ccccc1CNc1ncnc2c1ncn2[C@@H]1O[C@H](CO)[C@@H](O)[C@H]1O [metrifudil]
anticonvulsant activity (seizures induced by DMCM): potent anticonvulsant
